These results are taken from patent US20230365577A1, “Photodynamic Therapy and Diagnosis” (RMW CHO Group Limited, priority 2020, published 2023).

Data set [1] in a line: Singlet oxygen (1O2) production rate. The class given is physicochemical. An excerpt: The production of singlet oxygen (^1O2), cellular phototoxicity and light-independent cytotoxicity (“dark toxicity”) of a number of phyllochlorin analogues were compared against chlorin e4 disodium and Talaporfin sodium (mono-L-aspartyl chlorin e6), the active ingredient of Laserphyrin™.

Data set [2] concerns SKOV3 ovarian cancer cells. Briefly: Inherent cytotoxicity (dark toxicity) in SKOV3 cells (AlamarBlue viability). The class given is cell-based, Human. In general terms: Resazurin is reduced to fluorescent resorufin, in cell work by metabolically active cells.
Data set [3] relates to DLD-1. Briefly: Phototoxicity, pan-cancer panel. It is filed as cell-based. As to conditions: Homo sapiens, light or radiation study; DLD-1, colorectal adenocarcinoma. As to the method: (§1) To test for phototoxicity, cells incubated with phyllochlorin analogues (0-10 μM in DMSO) had culture media replaced after 24 hours (as above) and were then exposed to a 652 nm laser (Invion) with laser density at 50 mW/cm^2 for 5 mins (total 15 J/cm^2). Following activation, cells were cultured for a further 24 hours. Media was then replaced with fresh media containing AlamarBlue, and % viable cells remaining assessed as above. Controls included cells treated with phyllochlorin analogues but not activated by laser light; cells without phyllochlorin analogue treatment but with laser light; and untreated controls. All measurements were made in quadruplicate.
(§2) The activity of phyllochlorin analogues against multiple cancer cell types was assessed as above, using compounds 3 and 6 as examples.

Data set [4] concerns A549. Briefly: Phototoxicity, pan-cancer panel. The class given is cell-based. As to conditions: Homo sapiens, light or radiation study; A549, lung adenocarcinoma. As to the method: as §1, §2
Data set [5] deals with OVCAR3. Put plainly: Phototoxicity, pan-cancer panel. The class given is cell-based. As to conditions: Homo sapiens, OVCAR-3, light or radiation study; OVCAR3, ovarian adenocarcinoma. As to the method: as §1, §2
The test system of data set [6] is HH. Put plainly: Phototoxicity, pan-cancer panel. The conditions noted are these: Homo sapiens, light or radiation study, T cell lymphoma. The class given is cell-based. As for the experimental part: as §1, §2
For data set [7], the system named is HEK293. Put plainly: Phototoxicity, pan-cancer panel. The class given is cell-based. As to conditions: Homo sapiens, light or radiation study; HEK293, embryonic kidney. As for the experimental part:
as §1, §2

Data set [8] relates to MDA-MB-468. Briefly: Phototoxicity, pan-cancer panel. It is filed as cell-based. The conditions noted are these: Homo sapiens, light or radiation study; MDA-MB-468, breast adenocarcinoma (triple negative). As for the experimental part: as §1, §2
For data set [9], the system named is CaOV3. Briefly: Phototoxicity, pan-cancer panel. The class given is cell-based. As to conditions: Homo sapiens, Caov-3, light or radiation study; CaOV3, ovarian adenocarcinoma. As to the method:
as §1, §2

Data set [10] deals with LP9. Briefly: Phototoxicity, pan-cancer panel. It is filed as cell-based. As to conditions: light or radiation study; LP9, immortalised mesothelial cells. As for the experimental part:
as §1, §2

In data set [11] the test system is DLD-1. Put plainly: Cytotoxicity, pan-cancer panel. It is filed as cell-based. As to conditions: DLD-1, colorectal adenocarcinoma. As to the method: (§3) To test for inherent cytotoxicity (i.e. “dark toxicity”) of the phyllochlorin analogue the culture media was replaced after 24 hours with fresh media containing 10% (v/v) AlamarBlue Cell Viability Reagent (ThermoFisher) and cells incubated at 37° C. for 6 hours. Untreated cells were used as a control. Fluorescence (Ex 555 nm/Em 596 nm) was measured using a Cytation 3 Multimode Plate Reader (Biotek), and cytotoxicity assessed according to the % viable cells remaining. All measurements were made in quadruplicate.
as §2

The test system of data set [12] is A549. Briefly: Cytotoxicity, pan-cancer panel. As to conditions: A549, lung adenocarcinoma. It is filed as cell-based. As for the experimental part:
as §3, §2

In data set [13] the test system is OVCAR3. Put plainly: Cytotoxicity, pan-cancer panel. The conditions noted are these: OVCAR3, ovarian adenocarcinoma. It is filed as cell-based. As for the experimental part:
as §3, §2

Data set [14] has as its system HH. Put plainly: Cytotoxicity, pan-cancer panel. The conditions noted are these: T cell lymphoma. The class given is cell-based. As to the method: as §3, §2
In data set [15] the test system is HEK293. Briefly: Cytotoxicity, pan-cancer panel. It is filed as cell-based. As to conditions: HEK293, embryonic kidney. As to the method:
as §3, §2

Data set [16] relates to MDA-MB-468. Put plainly: Cytotoxicity, pan-cancer panel. The class given is cell-based. As to conditions: MDA-MB-468, breast adenocarcinoma (triple negative). As to the method:
as §3, §2

In data set [17] the test system is CaOV3. Put plainly: Cytotoxicity, pan-cancer panel. The class given is cell-based. As to conditions: CaOV3, ovarian adenocarcinoma. As for the experimental part:
as §3, §2

The subject of data set [18] is LP9. Put plainly: Cytotoxicity, pan-cancer panel. It is filed as cell-based. As to conditions: LP9, immortalised mesothelial cells. As for the experimental part:
as §3, §2

For data set [19], the system named is SKOV3 ovarian cancer cells. Put plainly: Phototoxicity in SKOV3 cells (652 nm laser, AlamarBlue viability). The class given is cell-based, Human. The conditions noted are these: for IC50: SKOV3, 652 nm laser, estimated from fitted curves. The gist of the method:
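SKOV3 cells were loaded for 24 h with photosensitizer (0–10 μM in DMSO) in medium containing 10% Kollidon-12. After a media change they were irradiated at 652 nm, 50 mW/cm^2 for 5 min (15 J/cm^2), cultured a further 24 h, and viability was read by AlamarBlue in quadruplicate. Phototoxicity IC90 and dark-toxicity IC10 came from variable-slope normalized dose–response fits.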

A short description of data set [20]: Estimated pKa of the carboxylic acid. The class given is physicochemical. An excerpt:
As PBS buffer (pH 7.4) is used in the experiments and the carboxylic acid in phyllochlorin (and the same carboxy group in other related chlorins) is estimated to have a pKa of less than 5, phyllochlorin in the PBS buffer will exist predominantly as the sodium and potassium salts with very little to no free acid.

Data set [21] is described as follows: Acute toxicity after intraperitoneal injection. The conditions noted are these: 5 mg/kg intraperitoneal, 1% PVP in PBS + 20 mM HEPES, observed 30 mins. It is filed as in vivo, C57BL/6 mice. As for the experimental part:
To assess acute toxicity, phyllochlorin or chlorin e4 disodium (each prepared with 1% PVP in PBS+20 mM HEPES) were administered at a dose of 5 mg/kg to C57BL/6 mice by intraperitoneal injection.

Data set [22] can be described thus: Solubility and absorbance maxima (absorbance spectra in DMSO/PBS, with or without PVP). The class given is physicochemical. As to the method: Absorbance maxima (660±2 nm for phyllochlorin) were used as a surrogate measure of solubility. The relevant phyllochlorin analogue was diluted to 50 μM in PBS (phosphate buffered saline) solutions containing decreasing amounts of DMSO from 100% to 0%.
Where required, polyvinylpyrrolidone (K30) was added to a final concentration of 1% w/v. Absorbance was measured using a Cytation 3 Multimode Plate Reader (Biotek) in spectral scanning mode, with spectra captured between 500-800 nm in 2 nm increments. Equivalent blank solutions were also measured and subtracted accordingly. Each spectrum was normalized to have a minimum signal of 0, and a maximum signal in pure DMSO solution (the most soluble state) of 100%.
The solubility of phyllochlorin was assessed in solutions containing DMSO as an organic solvent. Phyllochlorin (50 μM final concentration) was resuspended in 100% DMSO to fully dissolve the phyllochlorin. With phyllochlorin concentrations maintained at 50 μM the % DMSO was decreased in a stepwise manner from 100% to 0%. All solutions were mixed by vortexing, then centrifuged for 2 mins to pellet any insoluble material. A 150 μl aliquot was transferred to individual wells of a 96-well clear microplate, and absorbance spectra collected between 500-800 nm in 2 nm increments. Equivalent solutions containing decreasing % DMSO were used to control for background.

Values joined by “and” are separate entries in the source; they are usually repeats but may differ in a detail not shown here. Equal entries are not always repeated. Where two headings read alike, the source gives them in different places.

Turning to `C=Cc1c(C)c2cc3nc(c(C)c4cc(C)c(cc5nc(cc1[nH]2)C(C)=C5CC)[nH]4)[C@@H](CCC(=O)NCCCS[C@@H]1O[C@H](CO)[C@@H](O)[C@H](O)[C@H]1O)[C@@H]3C` [Compound 3, 3-((7S,8S)-18-ethyl-2,5,8,12,17-pentamethyl-13-vinyl-7H,8H-porphyrin-7-yl)-N-(3-(((2S,3R,4S,5S,6R)-3,4,5-trihydroxy-6-(hydroxymethyl)tetrahydro-2H-pyran-2-yl)thio)propyl)propanamide], the “Singlet Oxygen Production (slope) 1O2” value in data set [1] turned out to be 2054.0. Also, the “Cellular Toxicity: Dark toxicity IC10” value in data set [2] (human, 24 h) was found to be 20.66 µM. Further, the “Cytotoxicity IC10” value in data set [2] (human, 24 h) is 20.66 µM; in [11] it was 42.28 µM; in [12] it was 4.22 µM; in data set [13] it was 29.97 µM; in data set [14], 14.80 µM; in [15], 8.11 µM. Besides, the “Cytotoxicity IC10” value in data set [16] turned out to be 6.00 µM; in [17], 5.43 µM; in data set [18] it was 18.01 µM. Besides, the IC90 (commonly the concentration at which the effect reaches the 90% level) came to 0.36 µM in data set [3]; 0.2 µM in [4]; 0.17 µM in data set [5]; 0.11 µM in data set [6]; 0.22 µM in data set [7]; 0.07 µM in [8]. For the same compound, the IC90 in data set [9] is 0.05 µM; in [10] it was 0.04 µM; in [19] (Homo sapiens, SK-OV-3, light or radiation study, SKOV3, ovarian clear cell (Table 2), read-out: Phototoxicity IC90), 0.11 µM; in data set [19] (Homo sapiens, SK-OV-3, light or radiation study, SKOV3, 24 h uptake, 652 nm laser 50 mW/cm2 5 mins (15 J/cm2), viability 24 h later, read-out: Cellular Toxicity: Phototoxicity IC90), 0.08 µM; in data set [19] (Homo sapiens, SK-OV-3, light or radiation study, SKOV3, read-out: Phototoxicity apparent IC90), < 0.1 µM.

With `C=CC1=C(C)c2cc3nc(c(C)c4cc(C)c(cc5[nH]c(cc1n2)c(C)c5CC)[nH]4)[C@@H](CCC(=O)O)[C@@H]3C` [Phyllochlorin free acid, phyllochlorin free acid], the “Singlet Oxygen Production (slope) 1O2” value in [1] turned out to be 1335.5. In data set [2] (SKOV3, 24 hours, absence of PVP), the “Concentration at which cells remained >80% viable (dark toxicity)” value was 10 µM. Also, the “Concentration at which cells retained >80% viability (dark toxicity)” value in [2] (SKOV3, 24 hours, with addition of PVP) is listed as “up to 25 μM”. For the same compound, in data set [2] (SKOV3, 24 h incubation, no light), the “Cellular Toxicity: Dark toxicity IC10” value was determined as 13.81 µM. The “pKa of the carboxylic acid” value in data set [20] is given as “less than 5”. Besides, the “Side effects (clinical signs of acute toxicity)” value in [21] is recorded as “No side effects were noted”. Besides, the Solubility entry in data set [22] (50 μM, 1% w/v PVP, absorbance as surrogate) is “remained soluble in aqueous solvent (without DMSO)”. For the same compound, the Absorbance maxima in [22] (aqueous solvent, single broad peak) turned out to be 688±2 nm; in [22] (fully solubilized in organic solvent (75% DMSO and above)), 660±2 nm. Also, the IC50 (commonly the concentration needed to halve the response being measured) was 0.0631 µM and 0.06 µM in [19] (absence of PVP); 0.0539 µM in [19] (with addition of PVP). Moreover, the IC90 in data set [19] (SKOV3, 24 h uptake, 652 nm laser 50 mW/cm2 5 mins (15 J/cm2), viability 24 h later, read-out: Cellular Toxicity: Phototoxicity IC90) was determined as 0.29 µM. In addition, the “Times more potent as a phototoxic agent than chlorin e4 disodium salt” value in data set [19] (ovarian cancer cells, head to head, without PVP) is ~75 times.
